# In patent publication US12318365B2, “Inhibition of dipeptide repeat proteins” (ALS Therapy Development Institute, priority 2019, dated 2025):
# No end group written: not given here.
# Tests used:
# [1] = system: NSC-34 cells; assay: Caspase-3 assay (apoptotic activity) in NSC-34 cells; type: cell-based; settings: DRP 0.01-3 μM, 24 h; compared to DMSO-treated controls
# Text: Caspase-3/CPP32 Assay: The caspase-3 assay is a fluorometric assay that measures apoptotic cell death. Apoptosis is a form of “programmed” cell death, in which a certain family of proteins inside the cell triggers a cascade of chemical reactions that result in the cell killing itself. One family of proteins involved in this process is the caspase protein family. Of the caspase proteins, caspase-2, 8, 9, and 10 are known as “initiators,” those that trigger the death cascade, and caspase-3, 6, and 7 are known as “executioners,” which carry out the actual killing of the cell. In a caspase-3 assay, cells treated with test compounds are lysed, and a substrate known as DEVD-AFC is added to the lysate. If active caspase-3 enzyme is present in the lysate, it will cleave AFC from the DEVD-AFC substrate, resulting in a fluorescent signal that can be quantified using a fluorescence microtiter plate reader. Thus, the apoptotic activity of cells treated with test compounds can be quantified. Greater fluorescence readings correspond to more apoptotic cell death.
# Cells were plated in culture medium in 2 96-well plates at a density of 3.7×10^4 cells per well, and incubated overnight at 37° C., 5% CO2. The following day, immediately prior to addition of test compounds, existing culture medium was removed and replaced with staggered volumes of culture medium as in Example 1. A 10 mM stock of MS023 was thawed to room temperature and diluted as in Example 1. A 10 mM stock of GR15 (SEQ ID NO: 1) and a 10 mM stock of PR15 (SEQ ID NO: 2) were equilibrated to room temperature and diluted in warm culture medium to achieve a final concentration of 300 nM in wells.
# The following conditions were plated in triplicate. Samples were surrounded by border wells on the outside of the plate filled with sterile Phosphate-buffered saline to prevent evaporation of volume in experimental wells during incubation; • Background (Culture medium only) • Untreated/“Cells Only” (Cells in culture medium) • DMSO Control (Cells treated only with the amount of DMSO that GR- and PR-treated cells were exposed to) • GR Only (Cells treated only with 300 nM GR15) (SEQ ID NO: 1) • Cells treated with […] GR15 (SEQ ID NO: 1) and one of the following doses of MS023: 60 μM, 30 μM, 10 μM, 3 μM, 1 μM. • PR Only (Cells treated only with 300 nM PR15) (SEQ ID NO: 2) • Cells treated with 300 nM PR15 (SEQ ID NO: 2) and one of the following doses of MS023: 60 μM, 30 μM, 10 μM, 3 μM, 1 μM. • Cells treated with only one of the following doses of MS023: 60 μM, 30 μM, 10 μM, 3 μM, 1 μM. • Positive controls (Cells treated with either 5 or 16 μM PAC-1 Caspase-3 activator)
# Plates were incubated for 24 h at 37° C., 5% CO2. Cells were tested and data were analyzed using the procedure detailed in Caspase-3 assay kit instructions.
# Cells were plated in culture medium in 2 96-well plates at a density of 3.7×10^4 cells per well, and incubated overnight at 37° C., 5% CO2. The following day, immediately prior to addition of test compounds, existing culture medium was removed and replaced with staggered volumes of culture medium as in Example 1. A 10 mM stock of MS023 was thawed to room temperature and diluted in warm culture medium to achieve final concentrations of 3, 1, 0.3, 0.1, 0.03, and 0.01 μM in plate. A 10 mM stock of GR15 (SEQ ID NO: 1) and a 10 mM stock of PR15 (SEQ ID NO: 2) were equilibrated to room temperature and diluted in warm culture medium to achieve a final concentration of 3 μM in wells.
# The following conditions were plated in triplicate. […]
# [2] = system: NSC-34 cells; assay: BrdU ELISA (proliferation) in NSC-34 cells; type: cell-based, Mouse; settings: DRP 0.01-3 μM, 24 h; compared to DMSO-treated controls
# Experimental: BrdU ELISA: The BrdU ELISA is an ELISA detecting cell proliferation activity. BrdU is a pyrimidine analog that, when inside the cell, can be incorporated instead of thymidine into newly synthesized strands of DNA. Just as is indicated by thymidine incorporation into DNA, BrdU incorporation into cell DNA indicates DNA synthesis activity, which is required for cell proliferation. In the BrdU ELISA, cells are treated with test compounds as well as BrdU reagent, and then incubated for 24 hours before testing. During testing, an anti-BrdU antibody detects the incorporation of BrdU into cell DNA that occurred over the 24-hour period, as a surrogate for cell proliferation activity. This anti-BrdU antibody is then labelled with a secondary antibody tagged with a colored substrate, which can be quantified spectrophotometrically. Greater absorbance readings correspond to more cell proliferation activity.
# Cells were plated in culture medium in 2 96-well plates at a density of 3.7×10^4 cells per well, and incubated overnight at 37° C., 5% CO2.
# The following conditions were plated in triplicate.
# Plates were incubated for 24 h at 37° C., 5% CO2. Cells were tested and data were analyzed using the procedure detailed in BrdU ELISA kit instructions.
# Cells were plated in culture medium in 2 96-well plates at a density of 5×10^4 cells per well, and incubated overnight at 37° C., 5% CO2. […] 10 μL of each concentration would be added to 100 μL base media in plate to achieve final concentrations of 3, 1, 0.3, 0.1, 0.03, and 0.01 μM DRP.
# The following conditions were plated in triplicate. Samples were surrounded by border wells on the outside of the plate filled with sterile Phosphate-buffered saline to prevent evaporation of volume in experimental wells during incubation; • Culture medium only • Background (Cells only in culture medium, without BrdU reagent) • Untreated (Cells only in culture medium, with BrdU reagent) • DMSO Controls (Cells treated with BrdU reagent and the amount of DMSO that DRP-treated cells were exposed to at each concentration) • i. The DMSO controls tested were as follows, corresponding to DRP doses starting at the highest (3 μM to the lowest 0.01 μM), and were diluted in culture medium: • 1. 0.03% DMSO • 2. 0.01% DMSO • 3. 0.003% DMSO • 4. 0.001% DMSO • 5. 0.0003% DMSO • 6.
Sequence,DRP-induced apoptotic activity [1],effect of DRP on proliferation activity [2]
GPGPGPGPGPGPGPGPGPGPGPGPGPGPGP [GP15],producing less robust levels of apoptotic activity,did not significantly impact proliferation activity
PAPAPAPAPAPAPAPAPAPAPAPAPAPAPA [PA15],producing less robust levels of apoptotic activity,did not significantly impact proliferation activity
